Measured values as given in patent publication US20200239530A1, “COMPOUNDS AND METHODS OF MODULATING PROTEIN DEGRADATION” (Vividion Therapeutics, Inc., priority 2017, published 2020).

Legend:
Assay in all cases: Cysteine liganding, probe competition
Type in all cases: binding
[1] = target: T1, UBE4A Ubiquitin conjugation factor E4 A (Homo sapiens, UniProt Q14139); details: UBE4A Res# 79, uniprot Q14139
T1 construct: Cells were resuspended in cold PBS on ice and sonicated with a probe sonicator to achieve lysis; endogenous in cells
Outline: (§1)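 Probe competition in native proteome: 5 mg/ml lysate, compound 1 hr 25° C, then desthiobiotin iodoacetamide (10 mM stock) 1 hr 25° C; acetone ppt, urea/DTT reduction, iodoacetamide alkylation, trypsin, streptavidin pull-down.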

[2] = target: T2, RNF213 E3 ubiquitin-protein ligase RNF213 (Homo sapiens, UniProt Q63HN8)
T2 construct: Cells were resuspended in cold PBS on ice and sonicated with a probe sonicator to achieve lysis; endogenous in cells
Outline: as §1

[3] = target: T3, KEAP1 Kelch-like ECH-associated protein 1 (Homo sapiens, UniProt Q14145); details: KEAP1 Res# 288, uniprot Q14145
T3 construct: Cells were resuspended in cold PBS on ice and sonicated with a probe sonicator to achieve lysis; endogenous in cells
Outline: as §1

VPRBP Protein VPRBP = target: T4, VPRBP Protein VPRBP (Homo sapiens, UniProt Q9Y4B6)
T4 construct: Cells were resuspended in cold PBS on ice and sonicated with a probe sonicator to achieve lysis; endogenous in cells
Outline: as §1

[4] = target: T5, GFM1 Elongation factor G, mitochondrial (Homo sapiens, UniProt Q96RP9); details: GFM1 Res# 146, uniprot Q96RP9
T5 construct: Cells were resuspended in cold PBS on ice and sonicated with a probe sonicator to achieve lysis; endogenous in cells
Outline: as §1

[5] = target: T6, MAP1B Microtubule-associated protein 1B (Homo sapiens, UniProt P46821)
T6 construct: Cells were resuspended in cold PBS on ice and sonicated with a probe sonicator to achieve lysis; endogenous in cells
Outline: as §1

[6] = target: T7, RNF2 E3 ubiquitin-protein ligase RING2 (Homo sapiens, UniProt Q99496)
T7 construct: Cells were resuspended in cold PBS on ice and sonicated with a probe sonicator to achieve lysis; endogenous in cells
T7 sequence (Q99496 1-336): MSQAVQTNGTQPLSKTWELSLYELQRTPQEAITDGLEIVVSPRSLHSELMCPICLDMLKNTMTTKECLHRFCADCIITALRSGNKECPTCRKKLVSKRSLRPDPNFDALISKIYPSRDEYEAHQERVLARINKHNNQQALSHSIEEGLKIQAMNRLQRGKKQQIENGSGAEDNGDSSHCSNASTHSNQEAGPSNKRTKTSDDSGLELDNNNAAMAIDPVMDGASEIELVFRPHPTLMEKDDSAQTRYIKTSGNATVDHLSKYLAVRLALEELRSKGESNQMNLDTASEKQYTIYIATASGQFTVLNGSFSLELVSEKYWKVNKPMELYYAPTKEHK
Outline: as §1

[7] = target: T8, GCN1L1 Translational activator GCN1 (Homo sapiens, UniProt Q92616)
T8 construct: 200 μL of lysate containing 5 mg/ml proteome was treated with 2 μL of 100× compound stock; endogenous in cells
Outline: as §1

[8] = target: T9, AMMECR1L AMMECR1-like protein (Homo sapiens, UniProt Q6DCA0)
T9 construct: 200 μL of lysate containing 5 mg/ml proteome was treated with 2 μL of 100× compound stock; endogenous in cells
Outline: as §1

T9 sequence (Q6DCA0 whole entry): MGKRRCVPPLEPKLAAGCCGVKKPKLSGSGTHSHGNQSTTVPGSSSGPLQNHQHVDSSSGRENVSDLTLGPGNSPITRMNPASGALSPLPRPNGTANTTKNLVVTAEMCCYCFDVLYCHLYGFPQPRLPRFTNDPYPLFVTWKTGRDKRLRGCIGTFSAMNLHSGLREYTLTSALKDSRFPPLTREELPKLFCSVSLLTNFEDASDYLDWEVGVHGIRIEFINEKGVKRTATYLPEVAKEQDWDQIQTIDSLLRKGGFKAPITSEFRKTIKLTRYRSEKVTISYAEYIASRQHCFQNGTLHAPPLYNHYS
T6 sequence (P46821 whole entry): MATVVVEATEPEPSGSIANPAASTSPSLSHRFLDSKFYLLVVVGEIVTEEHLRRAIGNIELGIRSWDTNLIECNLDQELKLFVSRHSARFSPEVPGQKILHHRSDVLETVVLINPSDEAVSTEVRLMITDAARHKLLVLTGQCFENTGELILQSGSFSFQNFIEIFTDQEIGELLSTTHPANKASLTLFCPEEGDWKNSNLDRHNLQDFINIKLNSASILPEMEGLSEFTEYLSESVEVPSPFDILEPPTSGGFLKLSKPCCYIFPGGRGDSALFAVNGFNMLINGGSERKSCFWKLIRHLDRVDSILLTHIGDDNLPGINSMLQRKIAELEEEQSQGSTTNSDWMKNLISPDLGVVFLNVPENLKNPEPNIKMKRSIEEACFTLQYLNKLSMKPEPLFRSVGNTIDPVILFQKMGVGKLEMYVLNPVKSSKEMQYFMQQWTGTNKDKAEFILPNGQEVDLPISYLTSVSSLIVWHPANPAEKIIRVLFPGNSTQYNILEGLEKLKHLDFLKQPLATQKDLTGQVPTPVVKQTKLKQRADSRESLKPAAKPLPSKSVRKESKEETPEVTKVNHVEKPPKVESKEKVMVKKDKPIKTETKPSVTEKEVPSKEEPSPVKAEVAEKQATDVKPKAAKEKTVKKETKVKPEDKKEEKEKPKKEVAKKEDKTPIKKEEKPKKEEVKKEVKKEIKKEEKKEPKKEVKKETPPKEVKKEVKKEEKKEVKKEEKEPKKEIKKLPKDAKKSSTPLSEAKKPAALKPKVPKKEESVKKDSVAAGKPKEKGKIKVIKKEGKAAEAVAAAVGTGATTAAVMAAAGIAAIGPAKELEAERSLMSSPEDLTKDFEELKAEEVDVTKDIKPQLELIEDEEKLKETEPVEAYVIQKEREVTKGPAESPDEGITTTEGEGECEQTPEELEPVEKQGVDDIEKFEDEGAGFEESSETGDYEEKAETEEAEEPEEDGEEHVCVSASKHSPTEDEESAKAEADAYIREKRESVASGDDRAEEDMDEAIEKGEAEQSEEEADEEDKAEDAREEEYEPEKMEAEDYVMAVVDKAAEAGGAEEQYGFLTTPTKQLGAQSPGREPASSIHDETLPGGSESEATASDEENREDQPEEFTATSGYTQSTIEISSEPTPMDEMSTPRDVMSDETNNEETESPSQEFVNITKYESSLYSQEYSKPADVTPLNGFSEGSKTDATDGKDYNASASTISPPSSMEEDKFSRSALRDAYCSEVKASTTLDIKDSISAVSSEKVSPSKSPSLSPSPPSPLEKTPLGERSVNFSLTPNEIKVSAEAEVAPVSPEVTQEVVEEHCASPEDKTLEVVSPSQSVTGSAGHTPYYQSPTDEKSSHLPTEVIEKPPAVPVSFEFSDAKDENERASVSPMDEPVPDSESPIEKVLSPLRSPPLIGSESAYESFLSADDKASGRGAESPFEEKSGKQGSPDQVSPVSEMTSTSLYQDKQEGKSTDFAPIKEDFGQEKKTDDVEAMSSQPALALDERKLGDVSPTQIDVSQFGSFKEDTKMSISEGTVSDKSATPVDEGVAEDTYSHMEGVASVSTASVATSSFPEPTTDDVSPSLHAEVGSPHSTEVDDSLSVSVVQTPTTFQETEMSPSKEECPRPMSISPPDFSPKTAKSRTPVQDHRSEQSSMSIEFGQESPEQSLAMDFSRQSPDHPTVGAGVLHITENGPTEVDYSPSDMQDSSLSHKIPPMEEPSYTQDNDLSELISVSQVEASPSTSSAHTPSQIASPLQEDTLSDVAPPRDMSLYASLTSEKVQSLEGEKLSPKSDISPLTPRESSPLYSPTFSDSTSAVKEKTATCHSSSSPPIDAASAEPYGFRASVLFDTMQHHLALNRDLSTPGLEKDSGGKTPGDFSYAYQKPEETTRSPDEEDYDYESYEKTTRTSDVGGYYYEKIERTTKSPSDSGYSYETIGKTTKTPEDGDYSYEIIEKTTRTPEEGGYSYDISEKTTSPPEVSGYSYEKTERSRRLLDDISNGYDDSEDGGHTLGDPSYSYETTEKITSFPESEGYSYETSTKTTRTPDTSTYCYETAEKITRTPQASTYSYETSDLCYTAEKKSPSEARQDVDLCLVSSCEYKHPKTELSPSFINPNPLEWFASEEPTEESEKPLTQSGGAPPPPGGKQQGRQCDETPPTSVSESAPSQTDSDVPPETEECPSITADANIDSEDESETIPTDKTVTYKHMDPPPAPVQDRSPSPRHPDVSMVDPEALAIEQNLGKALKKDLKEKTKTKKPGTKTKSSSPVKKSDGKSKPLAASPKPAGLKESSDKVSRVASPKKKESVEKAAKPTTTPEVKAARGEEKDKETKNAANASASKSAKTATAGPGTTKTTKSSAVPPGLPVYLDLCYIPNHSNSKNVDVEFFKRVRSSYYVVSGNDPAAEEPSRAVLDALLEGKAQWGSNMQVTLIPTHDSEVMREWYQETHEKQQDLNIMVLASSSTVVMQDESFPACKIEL
T4 sequence (Q9Y4B6 whole entry): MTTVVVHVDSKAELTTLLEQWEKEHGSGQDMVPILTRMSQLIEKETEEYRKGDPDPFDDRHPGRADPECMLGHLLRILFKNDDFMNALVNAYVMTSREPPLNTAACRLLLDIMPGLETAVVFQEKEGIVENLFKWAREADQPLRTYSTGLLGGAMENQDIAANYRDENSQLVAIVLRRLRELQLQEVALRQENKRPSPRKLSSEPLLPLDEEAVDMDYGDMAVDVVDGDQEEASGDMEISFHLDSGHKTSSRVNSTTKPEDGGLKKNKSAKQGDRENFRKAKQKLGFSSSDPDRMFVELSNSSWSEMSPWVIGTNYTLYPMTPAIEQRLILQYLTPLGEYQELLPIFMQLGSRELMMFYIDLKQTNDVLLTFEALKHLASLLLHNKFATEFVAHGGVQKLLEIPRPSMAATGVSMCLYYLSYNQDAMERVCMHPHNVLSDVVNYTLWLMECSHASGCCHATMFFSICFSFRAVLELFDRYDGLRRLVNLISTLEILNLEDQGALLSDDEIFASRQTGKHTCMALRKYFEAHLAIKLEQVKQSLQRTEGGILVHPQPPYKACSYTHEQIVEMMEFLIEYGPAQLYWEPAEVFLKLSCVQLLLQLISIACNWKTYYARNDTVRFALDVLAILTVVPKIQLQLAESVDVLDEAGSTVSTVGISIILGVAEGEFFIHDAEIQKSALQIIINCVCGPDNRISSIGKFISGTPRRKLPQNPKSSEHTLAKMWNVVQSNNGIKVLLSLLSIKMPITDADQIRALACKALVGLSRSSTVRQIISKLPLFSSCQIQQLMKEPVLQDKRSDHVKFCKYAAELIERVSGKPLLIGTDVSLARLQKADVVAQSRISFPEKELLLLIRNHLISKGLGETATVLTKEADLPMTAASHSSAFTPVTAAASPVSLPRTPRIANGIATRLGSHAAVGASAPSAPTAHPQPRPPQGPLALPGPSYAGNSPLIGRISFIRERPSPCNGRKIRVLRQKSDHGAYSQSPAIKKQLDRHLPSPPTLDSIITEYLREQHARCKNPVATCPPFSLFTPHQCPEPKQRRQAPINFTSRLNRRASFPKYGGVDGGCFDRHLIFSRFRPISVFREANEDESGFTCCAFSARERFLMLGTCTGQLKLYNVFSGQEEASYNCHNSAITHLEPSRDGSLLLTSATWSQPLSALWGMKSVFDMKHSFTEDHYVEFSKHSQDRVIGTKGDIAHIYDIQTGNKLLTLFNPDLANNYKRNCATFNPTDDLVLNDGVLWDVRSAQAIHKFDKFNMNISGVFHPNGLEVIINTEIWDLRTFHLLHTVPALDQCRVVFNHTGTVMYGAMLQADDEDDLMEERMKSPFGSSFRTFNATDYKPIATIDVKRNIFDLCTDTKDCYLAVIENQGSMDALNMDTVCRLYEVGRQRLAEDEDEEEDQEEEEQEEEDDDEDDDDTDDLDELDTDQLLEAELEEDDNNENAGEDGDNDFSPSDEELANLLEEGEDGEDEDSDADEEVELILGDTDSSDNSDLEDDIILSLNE
T3 sequence (Q14145 whole entry): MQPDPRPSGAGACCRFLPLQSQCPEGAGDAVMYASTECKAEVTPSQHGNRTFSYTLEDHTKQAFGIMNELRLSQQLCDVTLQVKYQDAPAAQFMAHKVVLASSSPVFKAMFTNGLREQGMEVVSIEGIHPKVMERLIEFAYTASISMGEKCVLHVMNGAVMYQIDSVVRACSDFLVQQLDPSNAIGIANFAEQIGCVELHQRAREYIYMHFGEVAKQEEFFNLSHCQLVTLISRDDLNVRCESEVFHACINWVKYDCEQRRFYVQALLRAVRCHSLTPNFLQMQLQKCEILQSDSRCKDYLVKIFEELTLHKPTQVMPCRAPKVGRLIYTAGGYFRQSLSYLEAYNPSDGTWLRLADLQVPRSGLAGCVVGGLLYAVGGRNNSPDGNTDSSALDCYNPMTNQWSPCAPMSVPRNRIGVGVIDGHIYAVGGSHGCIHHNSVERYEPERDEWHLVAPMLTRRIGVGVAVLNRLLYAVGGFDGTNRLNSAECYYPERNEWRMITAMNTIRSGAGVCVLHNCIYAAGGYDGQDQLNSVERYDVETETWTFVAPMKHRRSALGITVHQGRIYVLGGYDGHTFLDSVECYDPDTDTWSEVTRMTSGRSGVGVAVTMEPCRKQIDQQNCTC

SMILES: COc1ccc2c(c1)CCCN2C(=O)CCl [KB02]
- Liganded [1]: YES
- Liganded ([2]; RNF213 Res# 1510, uniprot Q63HN8): YES
- Liganded ([2]; RNF213 Res# 4258, uniprot Q63HN8): YES
- Liganded ([2]; RNF213 Res# 4407, uniprot Q63HN8): YES
- Liganded [3]: YES
- Liganded (VPRBP Protein VPRBP; VPRBP Res# 69, uniprot Q9Y4B6): YES
- Liganded (VPRBP Protein VPRBP; VPRBP Res# 967, uniprot Q9Y4B6): YES
- Liganded [4]: YES

SMILES: O=C(CCl)Nc1cc(C(F)(F)F)cc(C(F)(F)F)c1 [KBO3]
- Liganded ([5]; MAP1B Res# 382, uniprot P46821): YES
- 100 ave ([5]; uniprot P46821): 37.5
- 500 ave ([5]; uniprot P46821): 75.17
- 500 Max ([5]; uniprot P46821, in % (unit assumed)): 75.17
- 100 Max ([5]; uniprot P46821, unit assumed): 37.5%
- Liganded ([6]; RNF2 Res# 54, uniprot Q99496): YES
- 100 Max ([6]; uniprot Q99496): 18.1
- 100 ave ([6]; uniprot Q99496): 0.5
- 500 Max ([6]; uniprot Q99496): 76.8
- 500 ave ([6]; uniprot Q99496): 76.8
- Liganded ([7]; GCN1L1 Res# 648, uniprot Q92616): YES
- 100 Max ([7]; uniprot Q92616): 28.59
- 100 ave ([7]; uniprot Q92616): 25.61
- 500 Max ([7]; uniprot Q92616): 80.3
- 500 ave ([7]; uniprot Q92616): 78.745
- Liganded ([8]; AMMECR1L Res# 153, uniprot Q6DCA0): YES
- 100 Max ([8]; uniprot Q6DCA0): 91.46
- 100 ave ([8]; uniprot Q6DCA0): 91.46
- 500 Max ([8]; uniprot Q6DCA0): 85.74
- 500 ave ([8]; uniprot Q6DCA0): 85.74
